Legend:
[1] = test system: CCRF-CEM; test: Tested for the cytotoxic effect in uninfected human lymphocyte derived CEM cells.; assay type: functional; details: read-out: TC50 (the source's name)
[2] = molecular target: T1, Human immunodeficiency virus type 1 protease (Human immunodeficiency virus 1, UniProt Q72874); test: In vitro binding affinity against HIV protease at pH 6.2.
[3] = test system: Human immunodeficiency virus 1; test: (§1) Tested for antiviral activity against HIV-III B strain infected human lymphocyte derived CEM cells; assay type: functional, organism-based, CCRF-CEM
[4] = test system: HIV protease; test: (§2) Therapeutic index for HIV protease was determined; details: read-out: Therapeutic index
[5] = molecular target: T1, Human immunodeficiency virus type 1 protease; test: In vitro binding affinity to HIV protease was determined at pH 4.7
[6] = Therapeutic index was determined; details: read-out: TI
[7] = Maximum concentration obtained in mouse plasma was determined at dose 25 mg/kg; assay type: ADME, organism-based; design: dose 25 mg/kg
[8] = molecular target: Human immunodeficiency virus type 1 protease (Human immunodeficiency virus 1) (UniProt Q72874); test: In vitro binding affinity to HIV protease was determined
[9] = Area under the curve for the compound is obtained at dose 25 mg/kg; assay type: ADME, organism-based; design: dose 25 mg/kg; details: mouse, in vivo
[10] = Bioavailability was obtained by the comparison of AUC of subcutaneous dosing and AUC of oral dosing in mouse at dose 25 mg/kg; assay type: ADME, organism-based; details: in vivo, read-out: Bioavailabiility
[11] = test system: Mus musculus; test: Time taken for EC90 was determined when tested in mouse at dose 25 mg/kg; assay type: ADME, organism-based; design: dose 25 mg/kg; details: in vivo
[12] = molecular target: T1, Human immunodeficiency virus type 1 protease; test: Binding affinity towards HIV protease was determined
[13] = Half life in mouse plasma at dose 25 mg/kg; assay type: ADME, organism-based; design: dose 25 mg/kg
[14] = species on record: Mus musculus; test: Time taken for EC90 was determined when tested in mouse; assay type: ADME, organism-based; details: in vivo
[15] = species on record: Canis familiaris; test: Time taken for EC90 was determined when tested in dog; assay type: ADME, organism-based, Canis lupus familiaris; details: in vivo
[16] = Bioavailability was obtained by the comparison of AUC of subcutaneous dosing and AUC of oral dosing in mouse; assay type: ADME, organism-based; details: in vivo, read-out: Bioavailabiility
[17] = Bioavailability was obtained by the comparison of AUC of intravenous dosing and AUC of oral dosing in dog; assay type: ADME, organism-based, Canis lupus familiaris; details: in vivo, read-out: Bioavailabiility
[18] = Half life in mouse plasma was determined at dose 25 mg/kg; assay type: ADME, organism-based; design: dose 25 mg/kg
[19] = Area under the curve for the compound was obtained when tested in dog; assay type: ADME, organism-based, Canis lupus familiaris; details: in vivo
[20] = Area under the curve for the compound was obtained when tested in mouse; assay type: ADME, organism-based; details: in vivo
[21] = Maximum concentration obtained in dog plasma was determined; assay type: ADME, organism-based, Canis lupus familiaris
[22] = test system: CCRF-CEM; test: as §1; assay type: functional
[23] = Half life in dog plasma was determined at dose 10 mg/kg; assay type: ADME, organism-based, Canis lupus familiaris; design: dose 10 mg/kg
[24] = as §2
[25] = Maximum concentration obtained in mouse plasma was determined; assay type: ADME, organism-based
[26] = molecular target: T1, Human immunodeficiency virus type 1 protease; test: In vitro binding affinity against HIV protease at pH 6.2 was determined
[27] = Human immunodeficiency virus 1, CCRF-CEM

| Compound | CC50 [1] [µM] | IC50 [2] [µM] | EC50 [3, 27] [µM] | selectivity ratio [4] | other results |
| --- | --- | --- | --- | --- | --- |
| Cc1cc(SC2=C(O)OC(C)(CCc3ccc(O)cc3)CC2=O)c(C(C)(C)C)cc1N (stereo not given) | 66 | 0.0096 | 9.4 | 7 | – |
| Cc1ccc(C(C)(C)C)c(SC2=C(O)O[C@](CCc3ccccc3)(c3ccccc3)CC2=O)c1 | – | – | – | – | IC50 [5]: 0.01 µM |
| Cc1cc(SC2=C(O)OC(CCc3ccc(N)cc3)(C(C)C)CC2=O)c(C(C)(C)C)cc1N (stereo not given) | 30 | 0.0075 | 0.9 | 33 | – |
| Cc1cc(SC2=C(O)OC(CCc3ccc(O)cc3)(C(C)C)CC2=O)c(C(C)(C)C)cc1NC(=O)c1cccnc1 (stereo not given) | > 100 | 0.0051 | 4.9 | > 20 | – |
| Cc1cc(SC2=C(O)OC(CCc3ccc(O)cc3)(C(C)C)CC2=O)c(C(C)(C)C)cc1NC(=O)c1ccc(C#N)cc1 (stereo not given) | 66 | 0.005 | 4.1 | 16 | – |
| Cc1cc(SC2=C(O)OC(CCc3ccc(O)cc3)(C(C)C)CC2=O)c(C(C)(C)C)cc1NC(=O)c1cccc(C#N)c1 (stereo not given) | 66 | 0.015 | 14 | 5 | – |
| Cc1cc(SC2=C(O)OC(CCc3ccc(O)cc3)(C(C)C)CC2=O)c(C(C)(C)C)cc1N(C)C (stereo not given) | 68 | 0.011 | 1.9 | 36 | – |
| Cc1cc(SC2=C(O)OC(CCc3ccc(O)cc3)(C3CC3)CC2=O)c(C(C)(C)C)cc1N (stereo not given) | 49 | 0.0041 | 2.5 | 20 | – |
| Cc1cc(SC2=C(O)O[C@](CCc3ccc(N)cc3)(C(C)C)CC2=O)c(C(C)(C)C)cc1CO | – | – | – | – | selectivity ratio [6]: 1050 |
| Cc1cc(SC2=C(O)OC(CCc3ccc(O)cc3)(C(C)C)CC2=O)c(C(C)(C)C)cc1NC(=O)c1ccccc1 (stereo not given) | 66 | 0.0132 | 5.4 | 12 | – |
| Cc1cc(SC2=C(O)OC(CCc3ccc(O)cc3)(C(C)C)CC2=O)c(C(C)(C)C)cc1NC(=O)c1ccncc1 (stereo not given) | > 100 | 0.00508 | 5.1 | > 20 | – |
| CC(=O)Nc1cc(C(C)(C)C)c(SC2=C(O)OC(CCc3ccc(O)cc3)(C(C)C)CC2=O)cc1C (stereo not given) | > 100 | 0.0034 | 4.8 | > 21 | – |
| Cc1cc(SC2=C(O)OC(CCc3ccc(O)cc3)(C(C)C)CC2=O)c(C(C)(C)C)cc1NC(=O)OC(C)(C)C (stereo not given) | – | 0.091 | – | – | – |
| CC(=O)Nc1cc(C(C)(C)C)c(SC2=C(O)OC(CCc3ccccc3)(C(C)C)CC2=O)cc1C (stereo not given) | 83 | 0.0035 | 1.8 | 46 | – |
| Cc1cc(SC2=C(O)OC(CCc3ccc(O)cc3)(C(C)C)CC2=O)c(C(C)(C)C)cc1N (stereo not given) | 92 | 0.0027 | 1 | 92 | Cmax [7]: 21 µM; EC90 [8]: 3.5 µM; AUC [9]: 44.8 µM·h; bioavailability [10]: 59.2%; Hours above EC90 [11]: 3.2; Ki [12]: 0.67 nM; half-life [13]: 2.1 h |
| Cc1cc(SC2=C(O)OC(CCc3ccc(O)cc3)(C3CCCC3)CC2=O)c(C(C)(C)C)cc1N (stereo not given) | 82 | 0.006 | 3.8 | 22 | – |

| Compound | CC50 [1] [µM] | IC50 [2] [µM] | EC50 [3, 27] [µM] | selectivity ratio [4] | other results |
| --- | --- | --- | --- | --- | --- |
| CCCCC1(CCc2ccc(O)cc2)CC(=O)C(Sc2cc(C)c(N)cc2C(C)(C)C)=C(O)O1 (stereo not given) | 25 | 0.0044 | 3.7 | 7 | – |
| Cc1cc(SC2=C(O)OC(CCc3ccc(O)cc3)(C(C)C)CC2=O)c(C(C)(C)C)cc1NC(=O)c1ccccn1 (stereo not given) | 66 | 0.0061 | 1.5 | 44 | – |
| Cc1cc(SC2=C(O)OC(C)(CCc3ccc(O)cc3)CC2=O)c(C(C)(C)C)cc1O (stereo not given) | 7 | – | > 7 | < 1 | – |
| Cc1cc(SC2=C(O)OC(CCc3ccc(O)cc3)(C(C)C)CC2=O)c(C(C)(C)C)cc1NC(=O)CC(C)(C)C (stereo not given) | 67 | 0.06 | 16 | 4 | – |
| Cc1cc(SC2=C(O)O[C@](CCc3ccc(O)cc3)(C(C)C)CC2=O)c(C(C)(C)C)cc1N (stereo in doubt; 15S) | 211 | – | – | – | Hours above EC90 [14]: 4; Hours above EC90 [15]: 8.5; bioavailability [16]: 100%; bioavailability [17]: 56%; half-life [18]: 1.2 h; AUC [19]: 138 µM·h; AUC [20]: 30 µM·h; Cmax [21]: 71 µM; EC90 [22]: 1 µM; Ki [12]: 0.07 nM; EC50 ([3]; ccrf-cem): 0.5 µM; half-life [23]: 1.7 h; Therapeutic index [24]: 422; Cmax [25]: 21.7 µM |
| Cc1cc(SC2=C(O)OC(CCc3ccccc3)(C(C)C)CC2=O)c(C(C)(C)C)cc1N (stereo not given) | 69 | 0.0033 | 1.9 | 36 | – |
| CCCC1(CCc2ccc(O)cc2)CC(=O)C(Sc2cc(C)c(N)cc2C(C)(C)C)=C(O)O1 (stereo not given) | 62 | 0.0038 | 4.1 | 15 | – |
| CCCCCC1(CCc2ccc(O)cc2)CC(=O)C(Sc2cc(C)c(N)cc2C(C)(C)C)=C(O)O1 (stereo not given) | 24 | 0.0077 | > 24 | < 1 | – |
| Cc1cc(SC2=C(O)O[C@](CCc3ccc(O)cc3)(C(C)C)CC2=O)c(C(C)(C)C)cc1CO | – | – | 0.46 | – | selectivity ratio [6]: > 200; Ki [26]: 0.09 nM |
| Cc1cc(SC2=C(O)O[C@](CCc3ccc(O)cc3)(C(C)C)CC2=O)c(C(C)(C)C)cc1N (stereo in doubt; 15R) | – | – | – | – | Ki [12]: 13 nM; EC50 ([3]; ccrf-cem): 91 µM; Therapeutic index [24]: 2 |
| Cc1cc(SC2=C(O)OC(CCc3ccccc3)(C(C)C)CC2=O)c(C(C)(C)C)cc1NC(=O)c1ccc(C#N)cc1 (stereo not given) | 46 | 0.014 | 8.3 | 6 | – |
| Cc1cc(SC2=C(O)OC(CCc3ccc(O)cc3)(C(C)C)CC2=O)c(C(C)(C)C)cc1NC(=O)c1ccc(C(F)(F)F)cc1 (stereo not given) | 27 | 0.0121 | 5 | 5 | – |
| Cc1cc(SC2=C(O)OC(CCc3ccccc3)(c3ccccc3)CC2=O)c(C(C)(C)C)cc1N (stereo not given) | 64 | 0.011 | > 64 | < 1 | – |
| Cc1cc(SC2=C(O)OC(CCc3ccc(O)cc3)(CC(C)C)CC2=O)c(C(C)(C)C)cc1N (stereo not given) | 62 | 0.0135 | 8.1 | 8 | – |
| Cc1cc(SC2=C(O)OC(CCc3ccc(O)cc3)(C3CCCCC3)CC2=O)c(C(C)(C)C)cc1N (stereo not given) | 66 | 0.02 | 10 | 7 | – |

Source: ChEMBL document CHEMBL1132164, “Nonpeptidic HIV protease inhibitors: 6-alkyl-5,6-dihydropyran-2-ones possessing achiral 3-(4-amino/carboxamide-2-t-butyl,5-methylphenyl thio) moiety: antiviral activities and pharmacokinetic properties” (Bioorg Med Chem Lett, 1999)
